According to patent US10301284B2, “Therapeutic inhibitory compounds” (LifeSci Pharmaceuticals, Inc., priority 2016, dated 2019):
Read-outs that look alike come from different tables or passages of the source.

What was measured:
[1] = molecular target: T1, human Plasma Kallikrein (Homo sapiens (Human), UniProt P03952); assay: In vitro enzyme inhibition of human plasma kallikrein (Pro-Phe-Arg-AMC cleavage); assay type: biochemical; settings: human plasma kallikrein, PFR-AMC substrate, 37° C.; read-out: hPK IC50
In short: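 Human plasma kallikrein preincubated 5 min at 37 °C with compound in 50 mM Tris-HCl pH 7.5, 150 mM NaCl, 0.01% Triton X-100. Reaction started with Pro-Phe-Arg-AMC, fluorescence read every 43 s for 1 h at 37 °C. IC50 from highest mean velocity over 20 reads (~15 min).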

[2] = molecular target: T1, human Plasma Kallikrein; assay: Human whole blood kallikrein inhibition (ellagic acid-activated human plasma, Z-FR-2-AMC substrate); assay type: biochemical
Experimental: The ability of the compounds disclosed herein to inhibit human plasma kallikrein activity was quantified according to the procedures below.
All dilutions were prepared in an assay buffer comprising 50 mM Tris-HCl pH 7.2, 150 mM NaCl, and 0.01% Triton X-100.
Human plasma was thawed on ice and centrifuged for 15 min at 4° C. to remove platelets. A 1 mM stock solution of ellagic acid was diluted to 8 μM and mixed with human plasma, after removing platelets, at a ratio of 1:0.8. The mixture of human plasma and ellagic acid was further diluted 32-fold in the assay buffer, to yield the final mixture for use in the inhibition assay.
A 22.5 μL volume of the final mixture of human plasma and ellagic acid was added to a 96-well microwell plate and the plate was incubated for 15 min at 37° C.
The test compound solution was prepared to provide final concentrations of 20 μM, 5 μM, 1.25 μM, 312.5 nM, 78.125 nM, 19.531 nM, 4.883 nM, 1.221 nM, 0.305 nM, and 0.076 nM. Each test compound concentration was tested in duplicates.
In addition to the inhibitor control and test wells, the 96 well assay plate included positive control wells which contain the mixture of human plasma and ellagic acid without test compounds, and background wells which contain neither the mixture of human plasma and ellagic acid nor the test compounds. The total volume of liquid in positive control and background wells was brought up to 35 μL using the assay buffer.
The assay plate containing test compounds mixed with human plasma and ellagic acid and appropriate controls was incubated at 37° C. for 5 min. A 10 mM stock solution of substrate Z-FR-2-AMC was diluted to 133.2 μM in the assay buffer, and 15 μL of the diluted substrate was added to each well, to yield a final substrate concentration of 40 μM in each well. The reagents were mixed by shaking the plate gently for 30 sec.
The enzyme reaction was quantified by immediate kinetic reading of the assay plate using excitation/emission wavelengths of 330 nm/440 nm respectively. Fluorescence intensity was recorded for 60 min, using a time interval of 43 sec.
The inhibition activity of the test compounds were evaluated using the IC50 values, calculated according to the dose-response curve of the test compounds, fitted using the “log(inhibitor)−response(variable slope)” equation in GraphPadPrism software (GraphPad Software, Inc.).
The percentage inhibition (EC50) was calculated using the following equation:
[formula] where, Mean(BG) is the average value of the fluorescence intensity of the background wells and Mean(PC) is the average value of the fluorescence intensity of the positive control wells.

[3] = Pharmacokinetic evaluation, oral exposure in rats; assay type: in vivo; settings: male Sprague-Dawley rats, single oral dose 10 mg/kg via oral gavage, plasma
Experimental: Pharmacokinetic studies of select compounds were performed to assess the pharmacokinetic properties. Male Sprague-Dawley rats were administered a single oral dose of the test compound at 10 mg/kg (dose concentration: 2 mg/mL, dose volume: 5 ml/kg) via oral gavage. Blood samples were collected via jugular vein at pre-dose, post-dose 5 min, 15 min, 30 min, 1 h, 2 h, 4 h, 6 h, 8 h, 10 h and 24 h, and centrifuged (8000 rpm for 6 minutes at 2-8° C.). The resulting plasma fractions were analyzed by LC/MS/MS to determine the concentration of the test compound.

[4] = human plasma activated with ellagic acid, Z-FR-2-AMC 40 μM, 37° C., read-out: HWB EC50

T1 sequence (P03952 391-638 limits assumed): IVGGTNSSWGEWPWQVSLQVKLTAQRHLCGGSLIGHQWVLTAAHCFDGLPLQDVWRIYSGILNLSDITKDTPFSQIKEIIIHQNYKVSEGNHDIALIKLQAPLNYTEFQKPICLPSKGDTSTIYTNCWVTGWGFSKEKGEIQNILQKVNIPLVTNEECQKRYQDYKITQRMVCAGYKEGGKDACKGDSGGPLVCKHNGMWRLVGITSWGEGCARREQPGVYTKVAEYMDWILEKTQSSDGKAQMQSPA
T1 sequence (P03952 20-390 partner limits assumed): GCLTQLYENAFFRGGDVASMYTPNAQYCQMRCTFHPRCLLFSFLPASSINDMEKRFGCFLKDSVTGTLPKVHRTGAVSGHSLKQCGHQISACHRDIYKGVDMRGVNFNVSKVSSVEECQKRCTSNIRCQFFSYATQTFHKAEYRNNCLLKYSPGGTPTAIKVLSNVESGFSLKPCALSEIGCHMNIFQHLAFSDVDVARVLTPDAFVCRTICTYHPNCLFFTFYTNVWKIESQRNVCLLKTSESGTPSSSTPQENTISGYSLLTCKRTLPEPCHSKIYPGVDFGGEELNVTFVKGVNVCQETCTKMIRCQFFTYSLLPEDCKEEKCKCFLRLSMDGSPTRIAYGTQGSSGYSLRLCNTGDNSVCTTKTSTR

| Compound | IC50 [1] [nM] | EC50 [2, 4] [nM] | AUC ([3]; rat, read-out: AUC) [ng·h/mL] | EC50 [2] [nM] | AUC [3] |
| --- | --- | --- | --- | --- | --- |
| Cc1cc(N)nc(C)c1CNC(=O)c1cn(Cc2ccc3ncc(Cl)cc3c2)nc1N [Example 17, 3-amino-N-((6-amino-2,4-dimethylpyridin-3-yl)methyl)-1-((3-chloroquinolin-6-yl)methyl)-1H-pyrazole-4-carboxamide] | < 100 | < 100 | 100 to 1000 |  |  |
| Cc1cc(N)nc(C)c1CNC(=O)c1cn(Cc2ccc3ncc(Cl)cc3c2)c2nccc(C#N)c12 [Example 127, N-((6-amino-2,4-dimethylpyridin-3-yl)methyl)-1-((3-chloroquinolin-6-yl)methyl)-4-cyano-1H-pyrrolo[2,3-b]pyridine-3-carboxamide] | < 100 |  | 100 to 1000 | < 100 |  |
| N-((6-amino-2,4-dimethylpyridin-3-yl)methyl)-1-((3-chloroquinolin-6-yl)methyl)-3-cyano-1H-pyrazole-4-carboxamide [Example 26] | < 100 | 100 to 1000 |  |  | B (>100 ng · h/mL to ≤1000 ng · h/mL) |
| Cc1cc(N)nc(C)c1CNC(=O)c1nnc(Cc2ccc3ncc(Cl)cc3c2)n1C [Example 98, N-((6-amino-2,4-dimethylpyridin-3-yl)methyl)-5-((3-chloroquinolin-6-yl)methyl)-4-methyl-4H-1,2,4-triazole-3-carboxamide] | < 100 | < 100 | 1000 to 10000 |  |  |
| Cc1cc(N)nc(C)c1CNC(=O)c1nc(N)n(Cc2ccc3ncc(Cl)cc3c2)n1 [Example 20, 5-amino-N-((6-amino-2,4-dimethylpyridin-3-yl)methyl)-1-((3-chloroquinolin-6-yl)methyl)-1H-1,2,4-triazole-3-carboxamide] | < 100 | < 100 | < 100 |  |  |
| Cc1cc(N)nc(C)c1CNC(=O)c1cn(Cc2ccc3ncc(Cl)cc3c2)nc1C(F)(F)F [Example 15, N-((6-amino-2,4-dimethylpyridin-3-yl)methyl)-1-((3-chloroquinolin-6-yl)methyl)-3-(trifluoromethyl)-1H-pyrazole-4-carboxamide] | < 100 | < 100 | 1000 to 10000 |  |  |
| Cc1cc(N)nc(C)c1CNC(=O)c1cn(Cc2ccc3ncc(Cl)cc3c2)c2cncc(C#N)c12 [Example 123, N-((6-amino-2,4-dimethylpyridin-3-yl)methyl)-1-((3-chloroquinolin-6-yl)methyl)-4-cyano-1H-pyrrolo[2,3-c]pyridine-3-carboxamide] | < 100 |  | < 100 | < 100 |  |
| Cc1nc(N)ccc1CNC(=O)c1cn(Cc2ccc3ncc(Cl)cc3c2)c2ccc(=O)[nH]c12 [Example 125, N-((6-amino-2-methylpyridin-3-yl)methyl)-1-((3-chloroquinolin-6-yl)methyl)-5-oxo-4,5-dihydro-1H-pyrrolo[3,2-b]pyridine-3-carboxamide] | < 100 | < 100 |  |  |  |
| Cc1cc(N)nc(C)c1CNC(=O)c1cnc(Cc2ccc3ncc(Cl)cc3c2)o1 [Example 114, N-((6-amino-2,4-dimethylpyridin-3-yl)methyl)-2-((3-chloroquinolin-6-yl)methyl)oxazole-5-carboxamide] |  | < 100 | 1000 to 10000 |  |  |
| Cc1cc(N)nc(C)c1CNC(=O)c1ccn(Cc2ccc3ncc(Cl)cc3c2)n1 [Example 1, N-((6-amino-2,4-dimethylpyridin-3-yl)methyl)-1-((3-chloroquinolin-6-yl)methyl)-1H-pyrazole-3-carboxamide] |  | < 100 | 100 to 1000 |  |  |
| Cc1cc(N)nc(C)c1CNC(=O)c1cn(Cc2ccc3ncc(Cl)cc3c2)c2ccc(=O)[nH]c12 [Example 126, N-((6-amino-2,4-dimethylpyridin-3-yl)methyl)-1-((3-chloroquinolin-6-yl)methyl)-5-oxo-4,5-dihydro-1H-pyrrolo[3,2-b]pyridine-3-carboxamide] | < 100 | < 100 |  |  |  |
